Results from US9782424B2, “Synergistic combination comprising avermectins and a NSAID for tumor inhibition” (Ectin Research AB, priority 2011, dated 2017).

Columns and labels:
Format in all cases: cell-based, human
[1] = system: colorectal cell line (Colo205); assay: XTT-assay proliferation rate, colorectal cell line Colo205; conditions: Colo205 (Table 4), no IVM
Excerpt: Commercially available human tumor cell lines were purchased from […], Borás, Sweden). Cell lines from urinary bladder (UM-UC-3, #CRL-1749), colorectal carcinoma (Colo205, #CCL-222 and HT29, #HTB-38), prostate carcinoma (LNCaP, #CRL-1740) and breast carcinoma (ZR-75-1, #CRL-1500) were purchased and stored in liquid nitrogen. […] Tumor cell lines were handled aseptically using a laminar airflow (LAF) bench (Holten 2448, Ninolab, Sweden) and stored in a liquid nitrogen tank and were initiated in culture as previously described (Falk P. Experimental models of the peritoneal environment: Effects of TGF-beta and Hyaluronan. Göteborg: University of Gothenburg; 2008). Briefly, ampoules of frozen cells were thawed by submerging into a 37° C. water bath for 45 s. […] Culture media was changed two-three times a week. Culture flasks (Cell+, Sarstedt, Nümbrecht, Germany) and culture plates (Falcon/BD, Franklin Lakes, N.J., USA) were used for experimental set-ups. […] Described culture techniques and equipment have been used extensively in the laboratory The proliferation rates of the different human tumor cell lines were studied using a method based on the conversion of a sodium salt (XTT-assay, Sigma) into a stable orange color that could be analyzed in a spectrophotometer. The color change is proportional to the mitochondrial dehydrogenase activity resulting in an effective technique for measuring cell toxicity (Roehm N W, Rodgers […], Glasebrook A L. An improved colorimetric assay for cell proliferation and viability utilizing the tetrazolium salt XTT. […] The color change was measured using a 96-well plate reader with software to calculate the absorbance at 450 nm (V-max/Softmax Pro, Molecular Devices, USA). […] RPMI 1640 and EMEM without phenol red was used during the experiments to reduce the red color background signal in the XTT-assay. […] Untreated wells including culture medium only served as untreated controls. The XTT-assay substrate was added and after gentle agitation using a micro plate shaker, absorbencies at 450 and 650 nm were measured. Levels from medium were subtracted and compared with control wells, using culture medium only.

[2] = system: breast cell line (ZR-75-1); assay: XTT-assay proliferation rate, breast cell line; conditions: ZR-75-1 (Table 6), no IVM
Experimental: (§1) Commercially available human tumor cell lines were purchased from ATCC (ATCC/LGC-standards, Borás, Sweden). […] Briefly, ampoules of frozen cells were thawed by submerging into a 37° C. water bath for 45 s. […] With supernatant discarded, cell pellets were further resuspended with 5 ml complete medium into 25 cm^2 cell culture flasks (Cell+, Sarstedt, Nümbrecht, Germany). Tumor cells were cultured until sub-confluence and further sub-cultured with Trypsin (0.5%), EDTA (0.2%) solution (T4174, TE-10x, Sigma) in sterile sodium chloride. Culture media was changed two-three times a week. Culture flasks (Cell+, Sarstedt, Nümbrecht, Germany) and culture plates (Falcon/BD, Franklin Lakes, N.J., USA) were used for experimental set-ups. Cells were regularly monitored using an inverted microscope connected to a digital photo equipment (Axiovert 25 and Axiovision, Zeiss, Carl Zeiss AG, Germany) (FIG. 1). Described culture techniques and equipment have been used extensively in the laboratory
(§2) The proliferation rates of the different human tumor cell lines were studied using a method based on the conversion of a sodium salt (XTT-assay, Sigma) into a stable orange color that could be analyzed in a spectrophotometer. […] The color change was measured using a 96-well plate reader with software to calculate the absorbance at 450 nm (V-max/Softmax Pro, Molecular Devices, USA).
(§3) Increasing concentrations of substance ivermectin was added with an 8-channel pipette (Titertek, Kem-En-Tec, Taastrup, Denmark) together with sterile pipette tips (Molecular Bioproducts, San Diego, Calif., USA). Cell cultures including active substances were incubated for 24 hours (and 96 hours). Untreated wells including culture medium only served as untreated controls. The XTT-assay substrate was added and after gentle agitation using a micro plate shaker, absorbencies at 450 and 650 nm were measured. Levels from medium were subtracted and compared with control wells, using culture medium only.

[3] = system: urinary bladder cell line (UM-UC-3); assay: XTT-assay proliferation rate, urinary bladder cell line; conditions: UM-UC-3 (Table 3), no IVM
Experimental: as §1, §2, §3

[4] = system: colorectal cells (Colo205); assay: Morphology of cultured tumor cells, Colo205; conditions: ivermectin 10 μM alone, albendazole 20 and 40 μM alone (FIG. 11)
Experimental: as §1
(§4) The effect of Ivermectin, selamectin, abamectin alone, or in combination with ketoconazole, albendazole, ibuprofen, diclofenac and celecoxib on the morphology of cultured human tumor cells was studied. The effect of ivermectin in the presence of increasing concentration of ivermectin was also investigated. Cells were grown into sub-confluence and then sub-cultured into 12 and 24 well plates (Sarstedt, Falcon/BD) for morphology studies, or in 96 well plates (Sarstedt, Falcon/BD) for proliferation studies.

prostate cells (LNCaP) = assay: Morphology of cultured tumor cells, LNCaP
Experimental: as §1, §4

[5] = system: prostatic cell line (LNCaP); assay: XTT-assay proliferation rate, prostatic cell line; conditions: LNCaP (Table 5); single agent 10 μmol/L, no IVM
Experimental: as §1, §2, §3

[6] = system: prostatic cell line (LNCaP); assay: XTT-assay proliferation rate, prostatic cell line; conditions: for Proliferation rate compared to untreated control: LNCaP (Table 5), no IVM

| SMILES | Proliferation rate compared to medium control ([1]; single agent 10 μmol/L) [%] | Proliferation rate compared to medium control ([1]; single agent 20 μmol/L) [%] | Proliferation rate compared to medium control ([1]; single agent 40 μmol/L) [%] | Proliferation rate compared to untreated control ([2]; single agent 10 μmol/L) [%] | Proliferation rate compared to untreated control ([2]; single agent 20 μmol/L) [%] | Proliferation rate compared to untreated control ([2]; single agent 40 μmol/L) [%] | Proliferation rate compared to untreated medium control ([3]; single agent 10 μmol/L) [%] | Proliferation rate compared to untreated medium control ([3]; single agent 20 μmol/L) [%] | Proliferation rate compared to untreated medium control ([3]; single agent 40 μmol/L) [%] | Decreased growth of cells, substances tested alone [4] | Effect on morphology (prostate cells (LNCaP); ketoconazole 10 μM) | Effect on morphology (prostate cells (LNCaP); ketoconazole 20 and 40 μM) | Proliferation rate compared to untreated control [5] [%] | Proliferation rate compared to untreated control ([6]; single agent 10 μmol/L, listed as Ket) [%] | Proliferation rate compared to untreated control ([6]; single agent 20 μmol/L) [%] | Proliferation rate compared to untreated control ([6]; single agent 40 μmol/L) [%] | Effect on proliferation rate ([6]; LNCaP, ketoconazole alone at 20 and 40 μM) |
| --- | --- | --- | --- | --- | --- | --- | --- | --- | --- | --- | --- | --- | --- | --- | --- | --- | --- |
| CC(C)Cc1ccc(C(C)C(=O)O)cc1 (racemic) [ibuprofen, (RS)-2-(4-(2-methylpropyl)phenyl)propanoic acid] | 90.1 ± 8.8 | 92.2 ± 8.2 | 90.8 ± 6.3 | 115.2 ± 3.8 | 116.2 ± 1.9 | 108.7 ± 6.7 | 103 ± 2 | 106 ± 2 | 99 ± 3 |  |  |  |  |  |  |  |  |
| CCCSc1ccc2nc(NC(=O)OC)[nH]c2c1 [albendazole, Methyl[6-(propylthio)-1H-benzoimidazol-2-yl]carbamate] |  |  |  |  |  |  |  |  |  | not seen |  |  |  |  |  |  |  |
| Cc1ccc(-c2cc(C(F)(F)F)nn2-c2ccc(S(N)(=O)=O)cc2)cc1 [celecoxib, 4-[5-(4-methylphenyl)-3-(trifluoromethyl)pyrazol-1-yl]benzenesulfonamide] | 98.7 ± 15.8 | 94.8 ± 2.5 | 94.5 ± 6.6 | 116.5 ± 4.4 | 110.6 ± 13.3 | 95.2 ± 4.9 | 103 ± 9 | 100 ± 6 | 106 ± 1 |  |  |  |  |  |  |  |  |
| CC(=O)N1CCN(c2ccc(OC[C@H]3CO[C@](Cn4ccnc4)(c4ccc(Cl)cc4Cl)O3)cc2)CC1 [ketoconazole, 1-[4-(4-{[(2R,4S)-2-(2,4-Dichlorophenyl)-2-(1H-imidazol-1-ylmethyl)-1,3-dioxolan-4-yl]methoxy}phenyl)piperazin-1-yl]ethan-1-one] | 94.8 ± 6.3 | 93.4 ± 8.1 | 72.1 ± 15.5 |  |  |  | 95 ± 6 | 99 ± 6 | 103 ± 2 |  | not microscopically affected | did affect morphology | 104.6±3.0 | 104.6 ± 3.0 | 76.3 ± 2.3 | 68.0 ± 1.8 | decreased the proliferation rate |
